Laboratory results reported in paper PMC12298351, “Novel 3,19-(N-Phenyl-3-(4-fluorophenyl)-pyrazole) Acetal of Andrographolide Promotes Cell Cycle Arrest and Apoptosis in MDA-MB-231 Breast Cancer Cells” (Pharmaceuticals, 2025).

How the values were obtained:
SNB-19 = format: cell-based; conditions: SNB-19, CNS
M14 = format: cell-based; conditions: M14, Melanoma
OVCAR-4 = format: cell-based; conditions: OVCAR-4, Ovarian; for CC50: read-out: 50% lethal concentration (LC50)
BT-549 = format: cell-based; conditions: BT-549, Breast
[1] = DPPH radical scavenging assay; conditions: 25 µM test compound, 0.1 mM DPPH, acetonitrile, 30 min
Method in brief: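 Compounds at 25 µM in acetonitrile mixed 1:2 with 0.1 mM DPPH in acetonitrile, kept 30 min in the dark at room temperature. Absorbance read at 517 nm; % scavenging = (Ac − As)/Ac × 100, Ac being DPPH blank. Ascorbic acid positive control.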

CCRF-CEM = conditions: for GI50 / Total growth inhibition (TGI): Leukemia; for CC50: read-out: 50% lethal concentration (LC50), Leukemia
K-562 = conditions: K-562, Leukemia; for CC50: read-out: 50% lethal concentration (LC50)
RPMI-8226 = conditions: RPMI-8226, Leukemia; for CC50: read-out: 50% lethal concentration (LC50)
A549/ATCC = conditions: for Total growth inhibition (TGI): Non-Small Cell Lung; for GI50: Non-Small-Cell Lung; for CC50: read-out: 50% lethal concentration (LC50), Non-Small Cell Lung
NCI-H226 = conditions: for Total growth inhibition (TGI) / CC50: NCI-H226, Non-Small Cell Lung; for GI50: NCI-H226, Non-Small-Cell Lung; for CC50: read-out: 50% lethal concentration (LC50)
NCI-H23 = conditions: for Total growth inhibition (TGI) / CC50: NCI-H23, Non-Small Cell Lung; for GI50: NCI-H23, Non-Small-Cell Lung; for CC50: read-out: 50% lethal concentration (LC50)
COLO 205 = conditions: COLO 205, Colon
HT29 = conditions: HT29, Colon; for CC50: read-out: 50% lethal concentration (LC50)
SW-620 = conditions: SW-620, Colon; for CC50: read-out: 50% lethal concentration (LC50)
SF-295 = conditions: SF-295, CNS; for CC50: read-out: 50% lethal concentration (LC50)
SK-MEL-2 = conditions: SK-MEL-2, Melanoma
SK-MEL-5 = conditions: SK-MEL-5, Melanoma; for CC50: read-out: 50% lethal concentration (LC50)
UACC-62 = conditions: UACC-62, Melanoma; for CC50: read-out: 50% lethal concentration (LC50)
OVCAR-5 = conditions: OVCAR-5, Ovarian; for CC50: read-out: 50% lethal concentration (LC50)
OVCAR-8 = conditions: OVCAR-8, Ovarian; for CC50: read-out: 50% lethal concentration (LC50)
NCI/ADR-RES = conditions: for GI50 / Total growth inhibition (TGI): Ovarian; for CC50: read-out: 50% lethal concentration (LC50), Ovarian
SK-OV-3 = conditions: SK-OV-3, Ovarian; for CC50: read-out: 50% lethal concentration (LC50)
786-0 = conditions: 786-0, Renal; for CC50: read-out: 50% lethal concentration (LC50)
RXF 393 = conditions: RXF 393, Renal; for CC50: read-out: 50% lethal concentration (LC50)
SN12C = conditions: for GI50 / Total growth inhibition (TGI): Renal; for CC50: read-out: 50% lethal concentration (LC50), Renal
UO-31 = conditions: UO-31, Renal; for CC50: read-out: 50% lethal concentration (LC50)
DU-145 = conditions: DU-145, Prostate; for CC50: read-out: 50% lethal concentration (LC50)
MCF7 = conditions: MCF7, Breast; for CC50: read-out: 50% lethal concentration (LC50)

C=C1CCC2C3(C)COC(c4cn(-c5ccccc5)nc4-c4cccc(F)c4)OC3CCC2(C)C1CC=C1C(=O)OCC1O (centres unmarked) [1c]
Total growth inhibition (TGI) (SNB-19): 2.72 µM
GI50 (M14): 1.75 µM
Total growth inhibition (TGI) (M14): 3.59 µM
GI50 (OVCAR-4): 1.74 µM
Total growth inhibition (TGI) (OVCAR-4): 4.27 µM
CC50 (OVCAR-4): > 100 µM
GI50 (BT-549): 1.3 µM
Total growth inhibition (TGI) (BT-549): 3.01 µM
% DPPH radical scavenging activity [1]: 58.33%
GI50 (CCRF-CEM): 2.06 µM
Total growth inhibition (TGI) (CCRF-CEM): > 100 µM
CC50 (CCRF-CEM): > 100 µM
GI50 (K-562): 2.14 µM
Total growth inhibition (TGI) (K-562): > 100 µM
CC50 (K-562): > 100 µM
GI50 (RPMI-8226): 2.63 µM
Total growth inhibition (TGI) (RPMI-8226): > 100 µM
CC50 (RPMI-8226): > 100 µM
Total growth inhibition (TGI) (A549/ATCC): 25.3 µM
GI50 (A549/ATCC): 3.88 µM
CC50 (A549/ATCC): > 100 µM
Total growth inhibition (TGI) (NCI-H226): 3.19 µM
GI50 (NCI-H226): 1.67 µM
CC50 (NCI-H226): 6.08 µM
Total growth inhibition (TGI) (NCI-H23): 3.57 µM
GI50 (NCI-H23): 1.79 µM
CC50 (NCI-H23): 7.09 µM
GI50 (COLO 205): 2.06 µM
Total growth inhibition (TGI) (COLO 205): 4.65 µM
GI50 (HT29): 1.7 µM
Total growth inhibition (TGI) (HT29): 4.51 µM
CC50 (HT29): > 100 µM
GI50 (SW-620): 5.71 µM
Total growth inhibition (TGI) (SW-620): > 100 µM
CC50 (SW-620): > 100 µM
GI50 (SF-295): 1.52 µM
Total growth inhibition (TGI) (SF-295): 2.88 µM
CC50 (SF-295): 5.49 µM
GI50 (SK-MEL-2): 1.79 µM
Total growth inhibition (TGI) (SK-MEL-2): 3.29 µM
GI50 (SK-MEL-5): 1.65 µM
Total growth inhibition (TGI) (SK-MEL-5): 3.02 µM
CC50 (SK-MEL-5): 5.51 µM
GI50 (UACC-62): 1.65 µM
Total growth inhibition (TGI) (UACC-62): 3.21 µM
CC50 (UACC-62): 6.22 µM
GI50 (OVCAR-5): 1.92 µM
Total growth inhibition (TGI) (OVCAR-5): 4.61 µM
CC50 (OVCAR-5): 31 µM
GI50 (OVCAR-8): 1.77 µM
Total growth inhibition (TGI) (OVCAR-8): 3.88 µM
CC50 (OVCAR-8): 8.5 µM
GI50 (NCI/ADR-RES): 1.77 µM
Total growth inhibition (TGI) (NCI/ADR-RES): 3.99 µM
CC50 (NCI/ADR-RES): 8.99 µM
GI50 (SK-OV-3): 2.7 µM
Total growth inhibition (TGI) (SK-OV-3): 6.09 µM
CC50 (SK-OV-3): > 100 µM
GI50 (786-0): 1.78 µM
Total growth inhibition (TGI) (786-0): 3.59 µM
CC50 (786-0): 7.24 µM
GI50 (RXF 393): 1.64 µM
Total growth inhibition (TGI) (RXF 393): 3.12 µM
CC50 (RXF 393): 5.94 µM
GI50 (SN12C): 1.59 µM
Total growth inhibition (TGI) (SN12C): 3.42 µM
CC50 (SN12C): 7.34 µM
GI50 (UO-31): 1.78 µM
Total growth inhibition (TGI) (UO-31): 2.77 µM
CC50 (UO-31): 5.46 µM
GI50 (DU-145): 1.97 µM
Total growth inhibition (TGI) (DU-145): 4.25 µM
CC50 (DU-145): 9.15 µM
GI50 (MCF7): 1.63 µM
Total growth inhibition (TGI) (MCF7): 5.49 µM
CC50 (MCF7): 50.1 µM

C=C1CCC2C3(C)COC(c4cn(-c5ccccc5)nc4-c4cccc(Cl)c4)OC3CCC2(C)C1CC=C1C(=O)OCC1O (centres unmarked) [1d]
GI50 (SNB-19): 2.24 µM
Total growth inhibition (TGI) (SNB-19): 6.04 µM
CC50 (SNB-19; read-out: 50% lethal concentration (LC50)): 54.8 µM
GI50 (M14): 1.69 µM
Total growth inhibition (TGI) (M14): 3.88 µM
GI50 (OVCAR-4): 2.09 µM
CC50 (OVCAR-4): > 100 µM
GI50 (BT-549): 1.57 µM
Total growth inhibition (TGI) (BT-549): 3.63 µM
% DPPH radical scavenging activity [1]: 59.32%
GI50 (CCRF-CEM): 1.32 µM
Total growth inhibition (TGI) (CCRF-CEM): 16.3 µM
CC50 (CCRF-CEM): > 100 µM
GI50 (K-562): 2.41 µM
CC50 (K-562): > 100 µM
GI50 (RPMI-8226): 1.38 µM
Total growth inhibition (TGI) (RPMI-8226): > 100 µM
CC50 (RPMI-8226): > 100 µM
Total growth inhibition (TGI) (A549/ATCC): 11.3 µM
GI50 (A549/ATCC): 2.82 µM
CC50 (A549/ATCC): 69.1 µM
Total growth inhibition (TGI) (NCI-H226): 3.37 µM
GI50 (NCI-H226): 1.76 µM
CC50 (NCI-H226): 6.46 µM
Total growth inhibition (TGI) (NCI-H23): 3.82 µM
GI50 (NCI-H23): 1.75 µM
CC50 (NCI-H23): 8.31 µM
GI50 (COLO 205): 1.98 µM
Total growth inhibition (TGI) (COLO 205): 4.24 µM
GI50 (HT29): 1.49 µM
Total growth inhibition (TGI) (HT29): 3.13 µM
CC50 (HT29): 6.57 µM
GI50 (SW-620): 1.53 µM
Total growth inhibition (TGI) (SW-620): 3.4 µM
CC50 (SW-620): 7.55 µM
GI50 (SF-295): 1.42 µM
Total growth inhibition (TGI) (SF-295): 2.75 µM
CC50 (SF-295): 5.36 µM
GI50 (SK-MEL-2): 1.57 µM
Total growth inhibition (TGI) (SK-MEL-2): 3.05 µM
GI50 (SK-MEL-5): 1.63 µM
Total growth inhibition (TGI) (SK-MEL-5): 3 µM
CC50 (SK-MEL-5): 5.53 µM
GI50 (UACC-62): 1.71 µM
Total growth inhibition (TGI) (UACC-62): 3.42 µM
CC50 (UACC-62): 6.83 µM
GI50 (OVCAR-5): 1.78 µM
Total growth inhibition (TGI) (OVCAR-5): 4.21 µM
CC50 (OVCAR-5): 7.73 µM
GI50 (OVCAR-8): 1.53 µM
Total growth inhibition (TGI) (OVCAR-8): 3.44 µM
CC50 (OVCAR-8): > 100 µM
GI50 (NCI/ADR-RES): 1.88 µM
Total growth inhibition (TGI) (NCI/ADR-RES): 4.77 µM
CC50 (NCI/ADR-RES): > 100 µM
GI50 (SK-OV-3): 5.86 µM
Total growth inhibition (TGI) (SK-OV-3): 33.4 µM
CC50 (SK-OV-3): > 100 µM
GI50 (786-0): 2.31 µM
Total growth inhibition (TGI) (786-0): 6.1 µM
CC50 (786-0): 83.4 µM
GI50 (RXF 393): 1.05 µM
Total growth inhibition (TGI) (RXF 393): 2.31 µM
CC50 (RXF 393): 5.07 µM
GI50 (SN12C): 1.65 µM
Total growth inhibition (TGI) (SN12C): 3.62 µM
CC50 (SN12C): 7.92 µM
GI50 (UO-31): 1.3 µM
Total growth inhibition (TGI) (UO-31): 2.71 µM
CC50 (UO-31): 5.63 µM
GI50 (DU-145): 1.88 µM
Total growth inhibition (TGI) (DU-145): 3.98 µM
CC50 (DU-145): 8.43 µM
GI50 (MCF7): 1.48 µM
Total growth inhibition (TGI) (MCF7): 66.8 µM
CC50 (MCF7): > 100 µM
